Values of other authors in patent US8536188B2, “Dosing regimens for treatment of proliferative disorders comprising administration of sapacitabine” (Cyclacel Limited, priority 2007, dated 2013).
One block for each compound: values may come before it.

How the values were obtained:
CTCL = CTCL patients
[1] = system: human tumour cells from various organs
cytidine deaminase = cytidine deaminase (Homo sapiens, UniProt P32320); conditions: compared with ara-C
NSCLC = conditions: 10 mg/m^2 intravenously over 30 minutes every three weeks
[2] = system: cancer cell lines, including those lacking deoxycytidine kinase; conditions: variety of cancer cell lines
colon cancer = conditions: model of colon cancer
[3] = phase I, patients with a variety of cancers
[4] = in vivo
[5] = system: ara-C-resistant tumour cell lines
[6] = single dose in rodents; repeat dose up to 3 months in mice and dogs

Chain of cytidine deaminase (P32320 whole entry, species assumed): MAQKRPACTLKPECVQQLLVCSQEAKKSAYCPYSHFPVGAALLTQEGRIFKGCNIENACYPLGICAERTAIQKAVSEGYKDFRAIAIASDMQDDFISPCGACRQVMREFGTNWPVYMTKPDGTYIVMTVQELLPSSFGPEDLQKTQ

SMILES: Nc1ccn([C@@H]2O[C@H](CO)[C@@H](O)C2(F)F)c(=O)n1 [Gemcitabine, gemcitabine]
- response rate (CTCL): 60-70%

SMILES: N#CC1C(O)C(COP(=O)(O)OP(=O)(O)OP(=O)(O)O)OC1n1ccc(N)nc1=O (centres unmarked) [CNDACTP, CNDAC-triphosphate]
- inhibition of DNA polymerase (DNA polymerase): potent inhibition

- substrate of cytidine deaminase (cytidine deaminase): weak substrate
SMILES: N#C[C@H]1[C@H](O)[C@@H](CO)O[C@H]1n1ccc(N)nc1=O [CNDAC, 2′-C-Cyano-2′-deoxy-β-D-arabino-pentafuranosylcytosine]
- activity against human tumour cells [1]: broad spectrum of activity

SMILES: Nc1ccn([C@@H]2CO[C@H](CO)O2)c(=O)n1 [troxacitabine]
- activity in NSCLC (NSCLC): little activity

SMILES: CCCCCCCCCCCCCCCC(=O)Nc1ccn([C@@H]2O[C@H](CO)[C@@H](O)[C@@H]2C#N)c(=O)n1 [sapacitabine, 2′-cyano-2′-deoxy-N^4-palmitoyl-1-β-D-arabinofuranosylcytosine]
- activity against human tumour cells [1]: broad spectrum of activity
- cytotoxicity of the parent drug [2]: cytotoxic
- activity in vivo against resistant P388 leukemia cell lines (P388 leukemia; P388 resistant to mitomycin C, vincristine, 5-FU or cisplatin): active
- antitumour activity compared with 5′-DFUR and gemcitabine (P388 leukemia; mouse P388 leukemia model): much more potent antitumour activity than 5′-DFUR and gemcitabine
- anticancer activity (colon cancer): strong anticancer activity
- increasing survival, compared with gemcitabine or 5-FU (colon cancer): superior to either gemcitabine or 5-FU
- preventing the spread of colon cancer metastases to the liver, compared with gemcitabine or 5-FU (colon cancer): superior to either gemcitabine or 5-FU
- dose limiting toxicity [3]: myelosuppression
- tolerability [3]: well tolerated
- oral bioavailability [4]: good
- cross-resistance to ara-C-resistant tumour cell lines [5]: partial cross-resistance
- major toxicities [6]: hematopoietic, gastrointestinal, and testicular
- effect on tumour xenografts (human tumour xenograft; gastric, mammary, lung, colorectal and hepatic tumour xenografts): tumour regressions were observed
- antitumour activity compared with 5′-DFUR and gemcitabine (human tumour xenograft; human xenografts of poorly differentiated gastric adenocarcinoma): much more potent antitumour activity than 5′-DFUR and gemcitabine
- antitumour activity in human tumour xenograft models (human tumour xenograft; variety of tumours): active against a variety of tumours
